Data on 2 compounds can be found in paper PMC3631453 (ACS chemical biology, 2013).

One data set relates to U2OS cells. Briefly: Cell density of transfected U2OS cells. It is filed as cell-based.
A further data set deals with full-length human ERβ (Homo sapiens, UniProt Q92731). The settings on record: relative to E2 = 100%; cited from earlier work.
Another data set concerns the target ERβ (Homo sapiens, UniProt Q92731). Nature of the data set: ER-regulated reporter gene. The conditions noted are these: U2OS, read-out: Hormonal activity (U2OS Cells) ERβ IA (intrinsic activity). (In general: In a reporter assay the amount or activity of a reporter protein is the signal.)
Another data set relates to MCF-7. Nature of the data set: Growth inhibition of ER-positive MCF-7 cells, 96h. Type of data set: cell-based. The conditions noted are these: read-out: Growth inhibition IC50 after 96h MCF7, OHT ligands.
Another data set has as its system MDA-MB-231. Nature of the data set: Growth inhibition of ER-negative MDA-MB-231 cells, 96h. Type of data set: cell-based. The conditions noted are these: read-out: Growth inhibition IC50 after 96h MDA-MB-231, OHT ligands.

SMILES strings stand for the structures. Marks after values point to notes of the source that are not given here.

Chain of full-length human ERβ (Q92731 whole entry): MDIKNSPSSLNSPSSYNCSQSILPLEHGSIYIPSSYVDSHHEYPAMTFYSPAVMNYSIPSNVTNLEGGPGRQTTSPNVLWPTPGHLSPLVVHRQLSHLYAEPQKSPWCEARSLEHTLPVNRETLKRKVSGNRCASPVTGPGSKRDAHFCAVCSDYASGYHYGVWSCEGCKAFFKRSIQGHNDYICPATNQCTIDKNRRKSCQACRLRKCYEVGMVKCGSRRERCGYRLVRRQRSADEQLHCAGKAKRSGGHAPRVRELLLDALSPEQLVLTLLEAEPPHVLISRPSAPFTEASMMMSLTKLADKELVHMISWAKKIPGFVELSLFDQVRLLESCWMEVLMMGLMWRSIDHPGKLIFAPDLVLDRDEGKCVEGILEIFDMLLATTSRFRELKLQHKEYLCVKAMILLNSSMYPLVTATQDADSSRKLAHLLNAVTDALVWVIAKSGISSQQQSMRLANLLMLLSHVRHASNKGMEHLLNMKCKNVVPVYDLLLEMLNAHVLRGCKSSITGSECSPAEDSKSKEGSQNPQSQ
Chain of ERβ (Q92731 whole entry): as above

Turning to `CC/C(=C(/CC)c1ccc(O)cc1)c1ccc(O)cc1` [DES, diethylstilbestrol], in the data set with U2OS cells (10nM), the “Hormonal activity (U2OS Cells) ERα CD (cell density)” value was 103% and the “Hormonal activity (U2OS Cells) ERβ CD (cell density)” value is listed as 90%. Also, on full-length human ERβ, the “RBA for ERβ” value is given as 278 ± 54 ^f %. Also, the Emax at ERβ is 111%.

The IC50 is the point on the concentration scale where inhibition reaches its midpoint. Turning to `CC/C(=C(\c1ccc(O)cc1)c1ccc(OCCN(C)C)cc1)c1ccccc1` [OHT, hydroxytamoxifen], the “Hormonal activity (U2OS Cells) ERα CD (cell density)” value in the data set with U2OS cells (1μM) turned out to be 110%. In the data set with U2OS cells (1μM), the “Hormonal activity (U2OS Cells) ERβ CD (cell density)” value was determined as 92%. For the same compound, the IC50 with MCF-7 was determined as 0.15 µM; in the data set on MDA-MB-231 it was 4.59 µM.
